Patent US20260262643A1, “HERBICIDAL BENZOXAZINES” (FMC CORPORATION, priority 2022, published 2026)

How the values were obtained:
kochia [1] = assay: Test C postemergence; format: in vivo, Bassia scoparia; details: 10 days, 0 to 100 scale (0 no effect, 100 complete control)
Summary of the method: (§1)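 Test material, in non-phytotoxic solvent with surfactant, was sprayed on the soil directly after seeding (preemergence) or on young plants of 2–10 cm with one to two leaves (postemergence). Greenhouse, 10 days; 0–100 visual control scale.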

ducksalad = assay: Test D flooded paddy test; format: in vivo, Heteranthera limosa; details: 250 g ai/ha, applied to paddy water, visual rating after 13 to 14 days, scale 0 to 100 (0 no effect, 100 complete control)
Summary of the method: (§2)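 Seedlings reached the 2-leaf stage, then pots were flooded to 3 cm over the soil surface. Compound was applied into the water, depth was maintained, and plants stayed in the greenhouse 13 to 14 days before visual scoring (0–100) relative to controls.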

ryegrass, Italian [2] = assay: Test C preemergence; format: in vivo, Lolium multiflorum
Summary of the method: as §1

barnyardgrass [3] = assay: Test C preemergence; format: in vivo, Echinochloa crusgalli
Summary of the method: as §1

blackgrass [4] = assay: Test C postemergence; format: in vivo, Alopecurus myosuroides; details: 10 days, 0 to 100 scale (0 no effect, 100 complete control)
Summary of the method: as §1

corn [5] = assay: Test C postemergence; format: in vivo, Zea mays; details: 10 days, 0 to 100 scale (0 no effect, 100 complete control)
Summary of the method: as §1

pigweed, palmer [6] = assay: Test C preemergence; format: in vivo, Amaranthus palmeri
Summary of the method: as §1

wheat [7] = assay: Test C postemergence; format: in vivo, Triticum aestivum; details: 10 days, 0 to 100 scale (0 no effect, 100 complete control)
Summary of the method: as §1

wheat [8] = assay: Test C preemergence; format: in vivo, Triticum aestivum
Summary of the method: as §1

oat, wild [9] = assay: Test C preemergence; format: in vivo, Avena fatua
Summary of the method: as §1

soybean [10] = assay: Test C preemergence; format: in vivo, Glycine max
Summary of the method: as §1

corn [11] = assay: Test C preemergence; format: in vivo, Zea mays
Summary of the method: as §1

ragweed [12] = assay: Test C postemergence; format: in vivo, Ambrosia artemisiifolia; details: 10 days, 0 to 100 scale (0 no effect, 100 complete control)
Summary of the method: as §1

barnyardgrass [13] = assay: Test C postemergence; format: in vivo, Echinochloa crusgalli; details: 10 days, 0 to 100 scale (0 no effect, 100 complete control)
Summary of the method: as §1

galium = assay: Test C postemergence; format: in vivo, Galium aparine; details: 10 days, 0 to 100 scale (0 no effect, 100 complete control)
Summary of the method: as §1

soybean [14] = assay: Test C postemergence; format: in vivo, Glycine max; details: 10 days, 0 to 100 scale (0 no effect, 100 complete control)
Summary of the method: as §1

kochia [15] = assay: Test C preemergence; format: in vivo, Bassia scoparia
Summary of the method: as §1

blackgrass [16] = assay: Test C preemergence; format: in vivo, Alopecurus myosuroides
Summary of the method: as §1

sedge, umbrella = assay: Test D flooded paddy test; format: in vivo, Cyperus difformis; details: 250 g ai/ha, applied to paddy water, visual rating after 13 to 14 days, scale 0 to 100 (0 no effect, 100 complete control)
Summary of the method: as §2

ryegrass, Italian [17] = assay: Test C postemergence; format: in vivo, Lolium multiflorum; details: 10 days, 0 to 100 scale (0 no effect, 100 complete control)
Summary of the method: as §1

ragweed [18] = assay: Test C preemergence; format: in vivo, Ambrosia artemisiifolia
Summary of the method: as §1

pigweed, palmer [19] = assay: Test C postemergence; format: in vivo, Amaranthus palmeri; details: 10 days, 0 to 100 scale (0 no effect, 100 complete control)
Summary of the method: as §1

green foxtail [20] = assay: Test C preemergence; format: in vivo, Setaria viridis
Summary of the method: as §1

oat, wild [21] = assay: Test C postemergence; format: in vivo, Avena fatua; details: 10 days, 0 to 100 scale (0 no effect, 100 complete control)
Summary of the method: as §1

green foxtail [22] = assay: Test C postemergence; format: in vivo, Setaria viridis; details: 10 days, 0 to 100 scale (0 no effect, 100 complete control)
Summary of the method: as §1

barnyardgrass [23] = assay: Test D flooded paddy test; format: in vivo, Echinochloa crus-galli; details: 250 g ai/ha, applied to paddy water, visual rating after 13 to 14 days, scale 0 to 100 (0 no effect, 100 complete control)
Summary of the method: as §2

rice = assay: Test D flooded paddy test; format: in vivo, Oryza sativa; details: 250 g ai/ha, applied to paddy water, visual rating after 13 to 14 days, scale 0 to 100 (0 no effect, 100 complete control)
Summary of the method: as §2

horseweed = assay: Test C postemergence; format: in vivo, Erigeron canadensis; details: 10 days, 0 to 100 scale (0 no effect, 100 complete control)
Summary of the method: as §1

[24] = 500 g ai/ha, preemergence, 0 to 100 scale (0 no effect, 100 complete control)
[25] = Preemergence, 125 g ai/ha, 0 to 100 scale, 0 no effect, 100 complete control

`CCOCC1CN(C(=O)c2cc(-n3cnc(C(C)(C)C)n3)ccc2OC)c2cccc(Cl)c2O1` (stereo not shown) [Compound 379] was tested, and the “Plant response rating, Kochia” value (kochia [1]; 500 g ai/ha, postemergence) was 90, the “Plant response rating, Kochia” value (kochia [1]; Postemergence, 125 g ai/ha) was 90 and the “Plant response rating, Ducksalad (Flood)” value (ducksalad) was 55. For the same molecule, the “Ryegrass, Italian plant response rating” value (ryegrass, Italian [2]; [24]) was 90, the “Plant response rating, Ryegrass, Italian” value (ryegrass, Italian [2]; [25]) was 70 and the “Barnyardgrass plant response rating” value (barnyardgrass [3]; [24]) was 100. The “Plant response rating, Barnyardgrass” value (barnyardgrass [3]; [25]) was 60, the “Plant response rating, Blackgrass” value (blackgrass [4]; 500 g ai/ha, postemergence) was 30 and the “Plant response rating, Blackgrass” value (blackgrass [4]; Postemergence, 125 g ai/ha) was 30. The “Plant response rating, Corn” value (corn [5]; 500 g ai/ha, postemergence) was 50, the “Plant response rating, Corn” value (corn [5]; Postemergence, 125 g ai/ha) was 30 and the “Pigweed, Palmer plant response rating” value (pigweed, palmer [6]; [24]) was 100. The “Plant response rating, Pigweed, Palmer” value (pigweed, palmer [6]; [25]) was 100, the “Plant response rating, Wheat” value (wheat [7]; 500 g ai/ha, postemergence) was 20 and the “Plant response rating, Wheat” value (wheat [7]; Postemergence, 125 g ai/ha) was 10. For the same molecule, the “Wheat plant response rating” value (wheat [8]; [24]) was 40, the “Plant response rating, Wheat” value (wheat [8]; [25]) was 20 and the “Oat, Wild plant response rating” value (oat, wild [9]; [24]) was 80. The “Plant response rating, Oat, Wild” value (oat, wild [9]; [25]) was 30, the “Soybean plant response rating” value (soybean [10]; [24]) was 90 and the “Plant response rating, Soybean” value (soybean [10]; [25]) was 90. For the same molecule, the “Corn plant response rating” value (corn [11]; [24]) was 30, the “Plant response rating, Corn” value (corn [11]; [25]) was 30 and the “Plant response rating, Ragweed” value (ragweed [12]; 500 g ai/ha, postemergence) was 90. The “Plant response rating, Ragweed” value (ragweed [12]; Postemergence, 125 g ai/ha) was 30, the “Plant response rating, Barnyardgrass” value (barnyardgrass [13]; 500 g ai/ha, postemergence) was 60 and the “Plant response rating, Barnyardgrass” value (barnyardgrass [13]; Postemergence, 125 g ai/ha) was 30. For the same molecule, the “Plant response rating, Galium” value (galium; 500 g ai/ha, postemergence) was 100, the “Plant response rating, Galium” value (galium; Postemergence, 125 g ai/ha) was 70 and the “Plant response rating, Soybean” value (soybean [14]; 500 g ai/ha, postemergence) was 100. The “Plant response rating, Soybean” value (soybean [14]; Postemergence, 125 g ai/ha) was 100, the “Kochia plant response rating” value (kochia [15]; [24]) was 100 and the “Plant response rating, Kochia” value (kochia [15]; [25]) was 80. The “Blackgrass plant response rating” value (blackgrass [16]; [24]) was 0, the “Plant response rating, Blackgrass” value (blackgrass [16]; [25]) was 0 and the “Plant response rating, Sedge, Umbrella (Flood)” value (sedge, umbrella) was 65. For the same molecule, the “Plant response rating, Ryegrass, Italian” value (ryegrass, Italian [17]; 500 g ai/ha, postemergence) was 50, the “Plant response rating, Ryegrass, Italian” value (ryegrass, Italian [17]; Postemergence, 125 g ai/ha) was 30 and the “Ragweed plant response rating” value (ragweed [18]; [24]) was 80. For the same molecule, the “Plant response rating, Ragweed” value (ragweed [18]; [25]) was 0, the “Plant response rating, Pigweed, Palmer” value (pigweed, palmer [19]; 500 g ai/ha, postemergence) was 100 and the “Plant response rating, Pigweed, Palmer” value (pigweed, palmer [19]; Postemergence, 125 g ai/ha) was 80. The “Foxtail, Green plant response rating” value (green foxtail [20]; [24]) was 100, the “Plant response rating, Foxtail, Green” value (green foxtail [20]; [25]) was 80 and the “Plant response rating, Oat, Wild” value (oat, wild [21]; 500 g ai/ha, postemergence) was 10. For the same molecule, the “Plant response rating, Oat, Wild” value (oat, wild [21]; Postemergence, 125 g ai/ha) was 0, the “Plant response rating, Foxtail, Green” value (green foxtail [22]; 500 g ai/ha, postemergence) was 20 and the “Plant response rating, Foxtail, Green” value (green foxtail [22]; Postemergence, 125 g ai/ha) was 20. For the same molecule, the “Plant response rating, Barnyardgrass (Flood)” value (barnyardgrass [23]) was 35, the “Plant response rating, Rice (Flood)” value (rice) was 15 and the “Plant response rating, Horseweed” value (horseweed; 500 g ai/ha, postemergence) was 30. The “Plant response rating, Horseweed” value (horseweed; Postemergence, 125 g ai/ha) was 0.
